Activity calls are given as the source filed them. The calls are words filed in the database; no cut-off is given here.
Legend:
[1] = test system: Mycobacterium tuberculosis; experiment: Inhibition of Mycobacterium tuberculosis ThyA using dUMP as substrate up to 100 uM measured immediatedly and at 10 mins post mTHF addition by spectrophotometric analysis
[2] = test system: Mycobacterium tuberculosis; experiment: (§1) Inhibition of Mycobacterium tuberculosis ThyX using [5-3H]dUMP as substrate after 10 mins by liquid scintillation counting analysis
[3] = test system: Mycobacterium tuberculosis; experiment: Activation of Mycobacterium tuberculosis ThyA using dUMP as substrate up to 100 uM measured immediatedly and at 10 mins post mTHF addition by spectrophotometric analysis
[4] = as §1

Row | Structure (SMILES) | inhibition [1] | inhibition [2] | Activity [3] | IC50 [4]
1 | CCCCCCCCCCOCc1cn([C@H]2C[C@H](O)[C@@H](COP(=O)(O)O)O2)c(=O)[nH]c1=O | inactive | inactive | – | –
2 | CCCCCCCCc1cn(Cc2cn([C@H]3C[C@H](O)[C@@H](COP(=O)(O)O)O3)c(=O)[nH]c2=O)nn1 | inactive | inactive | – | –
3 | COCCOCCOCCOCc1cn([C@H]2C[C@H](O)[C@@H](COP(=O)(O)O)O2)c(=O)[nH]c1=O | inactive | inactive | – | –
4 | CCCCCCCCCCCOCc1cn([C@H]2C[C@H](O)[C@@H](COP(=O)(O)O)O2)c(=O)[nH]c1=O | inactive | – | Active | 8.32 µM
5 | CCCCCCCCCCCCOCc1cn([C@H]2C[C@H](O)[C@@H](COP(=O)(O)O)O2)c(=O)[nH]c1=O | inactive | inactive | – | –
6 | CCCCCCCCCCCCOCc1cn([C@H]2C[C@H](N=[N+]=[N-])[C@@H](COP(=O)(O)O)O2)c(=O)[nH]c1=O | inactive | inactive | – | –
7 | CCCCCCCCCCc1cn(Cc2cn([C@H]3C[C@H](O)[C@@H](COP(=O)(O)O)O3)c(=O)[nH]c2=O)nn1 | inactive | inactive | – | –
